Test [1] concerns PC-3 prostate cancer cells. The experiment in a line: Example T: sensitisation of PC-3 cells to doxorubicin, oxaliplatin, paclitaxel or vincristine, Wst1. It counts as cell-based, human. The note with it: PC-3 cells, 72 hours; for viability at 0.4 µM: compound 0.4 μM alone; for Doxorubicin 3.5 μM: percent cell survival / Oxaliplatin 100 μM: percent cell survival / Paclitaxel 50 μM: percent cell survival / Vincristine 100 nM: percent cell survival: chemotherapy agent alone normalized to 100%.

A further test concerns THP-1 cells. In words: Example D: LPS-triggered THP-1 cell death assay, acute/5-hour and chronic/48-hour. In kind it is cell-based, Human. Particulars: for Viable cell percent change, Chronic/48-hour, Mean: 10 ng/ml LPS, 0.1 μM test compound; for activity relative to AC in the LPS-triggered THP-1 cell death assay, in words: 0.1 μM, 5-hour and 48-hour time points. The procedure: Compounds of the invention were tested at 0.1 μM versus AC in the LPS-triggered THP-1 cell death assay. Both acute/5-hour and chronic/48-hour phases of cell death were assessed. Compounds were screened in batches with DMSO as the negative control and AC as the high activity control.

Test [2] has as its system PC3 human prostate cancer cells. The experiment in a line: Example S: in vitro anticancer screen, PC-3 cells, Wst1. It counts as cell-based. Particulars: Homo sapiens, PC-3, approximately 20 hours, Wst1, read-out: PC-3, percent of cancer cell survival relative to vehicle treated cells. In outline:
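Values give percent survival relative to vehicle, read by Wst1 absorbance (450/630 nm) after 2 h dye incubation, in triplicate. Cells were seeded at 2×10^4/well and treated about 20 h with compound at 0.4, 0.5 or 2.5 μM, depending on compound.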

The test system of test [3] is 4T1 murine breast cancer cells. The experiment in a line: Example S: in vitro anticancer screen, 4T1 cells, Wst1. The note with it: Mus musculus, 4T1, 18 h, 18 hr, Wst1; for viability at 1 µM: read-out: 4T1 1 μM, percent of cancer cell survival relative to vehicle treated cells; for viability at 5 µM: read-out: 4T1 5 μM, percent of cancer cell survival relative to vehicle treated cells. It counts as cell-based, mouse. In outline: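 Read-out is Wst1 absorbance (450 nm, reference 630 nm) after roughly 2 hr dye incubation, giving percent cell survival versus vehicle. Before that, compounds at 1 μM or 5 μM were applied for 18 hr to 4T1 cells plated at 1×10^4 per well.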

Test [4] relates to Cryptococcus neoformans (serotype D). In words: Example K: Cryptococcus neoformans (serotype D) growth inhibition. The note with it: Cryptococcus deneoformans, OD of 48 hour reading, 37° C., tested 4 to 60 μM, XLfit. It counts as cell-based. The procedure:
Cryptococcus neoformans (serotype D) were plated in 96 well plates with 144 μl/well of 8×10e5 CFU/ml in YM growth medium. Diluted compounds were then added to each well with concentration ranged from 4 to 60 μM as final concentration in duplicates. The plates were inoculated at 37° C. for total of 48 hours. Two readings of OD at 600 nm were measured after 30 and 48 hour treatments.
• 1. Pick a single colony of Cryptococcus from the YM agar plate using the inoculum loop and inoculate into a 125 ml flask containing 25 ml of YM growth medium. • 2. Incubate at 37° C. with shaking at 220 rpm for 24 hours with loosen lid to allow air in and facilitates growth. • 3. Examine an aliquot of the culture under a microscope for yeast cell morphology and lack of bacterial contamination. • 4. Dilute the overnight culture with YM medium at 1:100 dilution and count the number of cells as 1×10^6 cfu/ml. • 5. Make a final concentration of cells suspension at 8×10^5 cfu/ml in YM medium. • 6. Plate 144 μl/well of 8×10^5 cfu/ml cell suspension on 96-well plates. Part-II: Cryptococcus Growth Inhibition Testing with Compounds • 1. From 10 mM DMSO stock solutions, make serial dilutions of compounds to 0.1, 0.2, 0.3, 0.5, 1.0 and 1.5 mM solution. • 2. Add 6 ul each of diluted compound solutions per well in duplicates. The final concentrations were 0, 4, 8, 12, 20, 40 and 60 micromolar. • 3. Incubated all plates at 37° C. overnight (30 hours) with 150 rpm shaking. • 4. Read absorbance at OD600 for each plate. • 5. Leave plates in 37° C. incubator for another day and read absorbance at OD600 again at 48 hours to ensure the inhibitory effect of the compounds. • 6. Calculated the % inhibition and IC50 of each compound against untreated cells.

Another test concerns S. cerevisiae. In words: Example I: Saccharomyces cerevisiae growth inhibition (OD 600 nm). In kind it is cell-based. Particulars: Saccharomyces cerevisiae, 18 hour incubation at 30° C., OD 600 nm, XLfit; for IC50: read-out: IC50, uM (50% inhibition of fungal growth); for MIC: read-out: MIC, uM (99% of inhibition of fungal growth). Here is the method: An overnight culture of S. cerevisiae was dilution in YPD broth to concentration of 40,000/ml and 150 μl/well was plated in 96 well plates. Compounds were then added to each well with concentration ranged from 4 to 50 μM as final concentration. The plates were inoculated at 30° C. overnight with shaking at 220 rpm and absorbance at 600 nm was read after 18 hour incubation.
• 1. One days prior to the inoculum preparation, pick a single colony of S. cerevisiae from the Sabouraud Dextrose Agar plate using the inoculum loop and inoculate into a 50 mL tube containing 10 ml of YPD growth medium • 2. Incubate at 30° C. with shaking at 220 rpm for 24 hours with loosen lid to allow air in and facilitates growth. • 3. Examine an aliquot of the culture under a microscope for yeast cell morphology and lack of bacterial contamination. • 4. Dilute the overnight culture with YPD medium at 1:30 dilution (70 ul to 2.1 ml) and count the number of cells as 4,230,000/ml. • 5. Mix 620 μl of 1:30 dilution and 64.4 ml YPD to make final concentration of 40,000/ml cells • 6. Plated 144 μl/well in four 96-well plates.
• 1. From 10 mM DMSO stock solutions, make serial dilutions of compounds to 0.1, 0.2, 0.3, 0.63 and 1.25 mM solutions • 2. Add 6 μl each of diluted compound solutions per well in duplicates. The final concentrations were 0, 4, 8, 12, 25 and 50 micromolar. • 3. Incubated all plates at 30 C for overnight (˜18 hours) with 220 rpm shaking. • 4. Read absorbance at OD600 for each plate on Spectra Max Plus plate reader. • 5. Calculate the % inhibition of each compound against the DMSO treated cell and plotted.

In test [5] the test system is Candida albicans strain 3153. The experiment in a line: Example H: Candida albicans growth inhibition (OD 600 nm). In kind it is cell-based. Here is the method:
A single colony of Candida Albicans was grown in 50 ml YPD broth overnight (19 hr). The cells were washed with PBS and 3.5×10^4 CFU/ml of C. Albicans (144 μl/well) in YPD medium were plated in 96 well plates. Test compounds were then added to each well with concentration ranged from 5 to 40 μM as final concentrations. The plates were incubated at 30° C. overnight (24 hrs) and OD at 600 nm was read at the end of incubation as an index of yeast cell density.
Part-I: Preparation of Candida albicans Cells • 1. One day prior to the inoculum preparation, pick a single colony of Candida albicans strain 3153 (lot #61794) from the Sabouraud Dextrose Agar plate using the inoculum loop and inoculate into a 250 mL flask containing 50 ml of YPD growth medium • 2. Incubate at 30° C. with shaking at 150 rpm for at least 18 hours with loosened lid to allow air in and facilitate growth. • 3. Examine an aliquot of the culture under a microscope for Candida cell morphology and lack of bacterial contamination; >95% of Candida cells should be blastoconidia. • 4. Transfer 25 ml the overnight culture into a 50-ml plastic disposable centrifuge tube, and centrifuge at 1000×g for 20 min. • 5. Discard the supernatant and wash the pellet with 4 ml of PBS at three times. Vortex and centrifuge, 1000×g for 10 min. • 6. After the third wash, dispense the pellet with 2 ml PBS and vortex. • 7. Make three 1:10 serial dilutions in sterile PBS (10^−1, 10^−2, 10^−3) from the 2 ml cell suspension using 15 ml culture tubes. The final volume in each tube is 5 ml. • 8. […] Make a 1:4 dilution in YPD medium from the 50-fold dilution of 10^−3 cell suspension for testing compounds. • The final C. albicans cell concentration for the test: 3.5×10^4 CFU/ml • 10. Plated 144 ul/well of the above dilution of cell on 96-well plates. Part-II: C. Albicans Growth Inhibition Testing with Compounds • 1. From 10 mM DMSO stock solutions, make serial dilutions of compounds to 0.13, 0.25, 0.40, 0.55, 0.75 and 1.0 mM solutions • 2. Add 6 ul each of diluted compound solutions per well in duplicates. The final concentrations were 0, 5, 10, 16, 22, 30 and 40 micromolar. • 3. Incubated all plates at 30 C for overnight (˜24 hours). • 4. Read absorbance at OD600 for each plate. • 5. Calculate the % inhibition of each compound against the DMSO treated cell.

[6] abbreviates: Homo sapiens, Wst1, vehicle = 100, read-out: No Chemo: percent cell survival.
[7] abbreviates: compound 0.4 μM + doxorubicin 3.5 μM.
Where [8] appears, read: compound 0.4 μM + oxaliplatin 100 μM.
[9] abbreviates: compound 0.4 μM + paclitaxel 50 μM.
The mark [10] stands for this setting: compound 0.4 μM + vincristine 100 nM.

Values after ≈ are worked out from the molar mass of the structure shown.

Turning to `COc1ccc(OCCCCCCCCNc2ccnc3ccccc23)cc1` [AD, N-[8-(4-Methoxyphenoxy)octyl]quinolin-4-amine], in test [1] (setting [6]), the viability at 0.4 µM turned out to be 54.7%. Further, the “Doxorubicin 3.5 μM: percent cell survival” value in test [1] (setting [7]) was 23.9%. In addition, the “Oxaliplatin 100 μM: percent cell survival” value in test [1] (setting [8]) is 23.1%. Further, the “Paclitaxel 50 μM: percent cell survival” value in test [1] (setting [9]) is listed as 46.1%. Also, in test [1] (setting [10]), the “Vincristine 100 nM: percent cell survival” value came to 46.7%. Moreover, in the test on THP-1 cells, the “Viable cell percent change, Chronic/48-hour, Mean” value (“Viable cell percent change” below) amounted to 26.01%; the “activity relative to AC in the LPS-triggered THP-1 cell death assay, in words” value was “equivalent activity to AC at both the 5-hour and 48-hour time points”. The viability at 0.4 µM in test [2] worked out at 54.7%. In addition, in test [3], the viability at 1 µM stood at 21.6% and the viability at 5 µM was found to be 51.1%. Further, in test [4] (read-out: IC50 (concentration for 50% of inhibition)), the IC50 was 3.98 µM. In addition, the MIC in test [4] (read-out: MIC (concentration for maximum-99% of inhibition)) amounted to 45.2 µM (≈ 17.1 µg/mL).

As to `CCCCCCOCCCCCCCCNc1ccnc2cc(C(F)(F)F)ccc12` [AY, N-[8-(Hexyloxy)octyl]-7-(trifluoromethyl)quinolin-4-amine], the viability at 2.5 µM in test [1] (Homo sapiens, compound 2.5 μM alone, Wst1, vehicle = 100, read-out: No Chemo: percent cell survival) was 50.4%. Besides, in test [1] (compound 2.5 μM + doxorubicin 3.5 μM), the “Doxorubicin 3.5 μM: percent cell survival” value is given as 78.9%. Besides, the “Oxaliplatin 100 μM: percent cell survival” value in test [1] (compound 2.5 μM + oxaliplatin 100 μM) amounted to 92%. In addition, in test [1] (compound 2.5 μM + paclitaxel 50 μM), the “Paclitaxel 50 μM: percent cell survival” value is 90.1%. Besides, the “Vincristine 100 nM: percent cell survival” value in test [1] (compound 2.5 μM + vincristine 100 nM) worked out at 78.7%. Further, the “Viable cell percent change” value in the test on THP-1 cells is given as 7.71%. Besides, the viability at 2.5 µM in test [2] (2.5 μM) was 50.4%. Also, in test [3], the viability at 1 µM came to 131% and the viability at 5 µM stood at 34.5%. Further, in the test on S. cerevisiae, the IC50 was found to be 16.9 µM and the MIC came out at 21.9 µM (≈ 9.29 µg/mL).

Take `COc1cccc(OCCCCCCCCNc2ccnc3ccccc23)c1` [BH, N-[8-(3-Methoxyphenoxy)octyl]quinolin-4-amine]: the viability at 0.4 µM in test [1] (setting [6]) amounted to 98.5%. In addition, in test [1] (setting [7]), the “Doxorubicin 3.5 μM: percent cell survival” value is on record as 35.7%. For the same compound, the “Oxaliplatin 100 μM: percent cell survival” value in test [1] (setting [8]) came to 30.6%. Moreover, in test [1] (setting [9]), the “Paclitaxel 50 μM: percent cell survival” value is listed as 61%. Moreover, the “Vincristine 100 nM: percent cell survival” value in test [1] (setting [10]) worked out at 71.6%. Further, in the test with THP-1 cells, the “Viable cell percent change” value was 34.77%; the “activity relative to AC in the LPS-triggered THP-1 cell death assay, in words” value is “equivalent activity to AC at both the 5-hour and 48-hour time points”. For the same compound, the viability at 0.4 µM in test [2] worked out at 98.5%. Further, in test [3], the viability at 1 µM is 21% and the viability at 5 µM was 19.3%. Besides, in test [5] (Candida albicans, 3153, 24 hrs at 30° C., YPD, XLfit, read-out: MIC (uM) (99% of inhibition of fungal growth)), the MIC is 30.1 µM (≈ 11.4 µg/mL). Further, the IC50 in test [5] (Candida albicans, 3153, read-out: IC50 (uM) (50% inhibition of fungal growth), 24 hrs at 30° C., YPD, XLfit) is 18.1 µM.

As to `CCCCCCNC(=O)c1cccc(Nc2ccnc3ccccc23)c1` [BV, N-Hexyl-3-(quinolin-4-ylamino)benzamide], the “Viable cell percent change” value in the test with THP-1 cells stood at 42.14%. For the same compound, the viability at 0.4 µM in test [2] amounted to 31.6%. Besides, in the test on S. cerevisiae, the IC50 turned out to be 12.3 µM and the MIC was 25 µM (≈ 8.69 µg/mL).

The values above are taken from patent publication US20250034139A1, “AMINE COMPOUNDS HAVING ANTI-INFLAMMATORY, ANTIFUNGAL, ANTIPARASITIC, AND ANTICANCER ACTIVITY” (PHARMA CINQ, LLC, priority 2013, published 2025).
